Results: US6596772B1, “Phosphate mimics and methods of treatment using phosphatase inhibitors” (Sugen, Inc., priority 1999, dated 2003)
pIC50: −log10 of the molar value. Like-named read-outs stand apart in the source and are kept apart here.

Key:
Assay in all cases: PTP IC50 assay, pNPP or FDP as substrate
Type in all cases: biochemical
[1] = biological target: T1, PTP 1B (Homo sapiens, UniProt P18031)
T1 construct: made in house; host or cells: Sf-9 insect cells (pFastBac-G2T)
T1 sequence (P18031 1-435): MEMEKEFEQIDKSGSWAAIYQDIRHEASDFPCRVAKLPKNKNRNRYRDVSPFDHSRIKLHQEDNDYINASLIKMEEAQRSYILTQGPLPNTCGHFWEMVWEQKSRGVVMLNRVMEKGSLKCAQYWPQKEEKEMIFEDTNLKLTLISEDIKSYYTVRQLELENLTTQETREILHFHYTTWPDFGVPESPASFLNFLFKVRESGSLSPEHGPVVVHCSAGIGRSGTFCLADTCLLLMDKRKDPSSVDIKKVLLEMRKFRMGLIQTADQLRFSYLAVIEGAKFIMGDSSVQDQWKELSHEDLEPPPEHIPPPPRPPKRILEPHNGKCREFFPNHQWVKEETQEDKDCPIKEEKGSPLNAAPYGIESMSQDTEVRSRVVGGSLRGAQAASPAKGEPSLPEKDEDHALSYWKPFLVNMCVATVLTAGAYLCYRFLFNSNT
Procedure: (§1) The following in vitro assay procedure is preferred to determine the level of activity and effect of the different compounds of the present invention on one or more of the PTPs. Similar assays can be designed along the same lines for any PTP using techniques well known in the art.
(§2) The catalytic assays described herein are performed in a 96-well format. The general procedure begins with the determination of PTP optimal pH using a three-component buffer system that minimizes ionic strength variations across a wide range of buffer pH. Next, the Michaelis-Menten constant, or Km, is determined for each specific substrate-PTP system. This Km value is subsequently used as the substrate reaction concentration for compound screening. Finally, the test PTP is exposed to varying concentrations of compound for fifteen minutes and allowed to react with substrate for ten minutes. The results are plotted as percent inhibition versus compound concentration and the IC50 interpolated from the plot.
(§3) All assays were performed using pNPP or FDP as substrate. The optimum pH was determined for each PTP used.
(§4) PTPase activity was assayed at 25° C. in a 100-μl reaction mixture containing an appropriate concentration of pNPP or FDP as substrate. The reaction was initiated by addition of the PTP and quenched after 10 min by addition of 50 μl of IN NaOH. The non-enzymatic hydrolysis of the substrate was corrected by measuring the control without the addition of the enzyme. The amount of p-nitrophenol produced was determined from the absorbance at 410 nm. To determine the kinetic parameter, Km, the initial velocities were measured at various substrate concentrations and the data were fitted to the Michaelis equation where velocity=(Vmax*[S])/(Km+[S]), and [S]=substrate reaction concentration.
(§5) The effect of the compounds on PTP was evaluated at 25° C. using pNPP or FDP as substrate. PTP was pre-incubated for fifteen minutes with various concentrations of compound. Substrate was then added at a fixed concentration (usually equal to the Km previously calculated). After 10 minutes, NaOH was added to stop the reaction. The hydrolysis of pNPP was followed at 410 nm on the Biotek Powerwave 200 microplate scanning spectrophotometer. The percent inhibition was calculated as follows: Percent Inhibition=[(control signal−compound signal)/control signal] ×100%. The IC50 was then determined by interpolation of a percent inhibition versus compound concentration plot.
(§6) Plasmids designed for bacterial GST-PTP fusion protein expression were derived by insertion of PCR-generated human PTP fragments into pGEX vectors (Pharmacia Biotech). Several of these constructs were then used to subclone phosphatases into pFastBac-1for expression in Sf-9 insect cells. Oligonucleotides used for the initial amplification of PTP genes are shown below. The cDNAs were prepared using the Gilbo BRL superscript preamplification system on RNAs purchased from Clontech.
The PTP1b cDNA was amplified from human placenta single strand cDNA (Clontech RNA) using the following oligonucleotides: 5′oligo: 5′-[…] (SEQ ID NO: 4) 3′oligo: 5′-[…] (SEQ ID NO: 5) It was subsequently ligated into pFasBac G2TBamH1Xba-1 sites.

[2] = biological target: T2, PTP SIGMA (Homo sapiens, UniProt Q13332)
T2 construct: made in house; host or cells: E. coli BL-21 (pGEX 6P-1)
T2 sequence (Q13332 1320-1660 limits assumed): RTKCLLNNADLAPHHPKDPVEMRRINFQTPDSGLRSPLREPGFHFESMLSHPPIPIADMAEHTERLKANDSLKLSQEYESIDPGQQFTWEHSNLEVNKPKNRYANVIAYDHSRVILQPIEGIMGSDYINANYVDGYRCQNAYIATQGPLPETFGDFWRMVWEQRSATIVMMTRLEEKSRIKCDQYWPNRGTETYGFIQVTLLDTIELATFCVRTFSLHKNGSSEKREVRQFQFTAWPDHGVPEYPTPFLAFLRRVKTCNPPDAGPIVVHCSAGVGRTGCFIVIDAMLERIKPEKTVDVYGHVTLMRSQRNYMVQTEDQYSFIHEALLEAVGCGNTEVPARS
Procedure: as §1, §2, §3, §4, §5, §6
The PTP Sigma cDNA was amplified from human brain single strand cDNA (Clontech RNA) using the following oligonucleotides: 5′oligo: 5′-[…]-3′ (SEQ ID NO: 12) 3′oligo: 5′-[…]-3′ (SEQ ID NO: 13) and subsequently ligated into pGex 6P-1 Eco RI/Xho I sites.

[3] = biological target: T3, PTP MU (Homo sapiens, UniProt P28827)
T3 construct: made in house; host or cells: E. coli BL-21 (pGEX 6P-1)
Procedure: as §1, §2, §3, §4, §5, §6
The PTP Mu cDNA was amplified from a human lung cDNA library (Clontech) using the following oligonucleotides; 5′oligo: 5′-[…]-3′ (SEQ ID NO: 18) 3′oligo: 5′-[…]-3′ (SEQ ID NO: 19) It was subsequently ligated into the Eco RI/Xho I sites of pGEX 6P-1.

[4] = pNPP or FDP as substrate, 25° C., read-out: PTP IC50 1B
[5] = pNPP or FDP as substrate, 25° C., read-out: PTP IC50 Sigma
[6] = pNPP or FDP as substrate, 25° C., read-out: PTP IC50 Mu

T3 sequence (P28827 831-1186 limits assumed): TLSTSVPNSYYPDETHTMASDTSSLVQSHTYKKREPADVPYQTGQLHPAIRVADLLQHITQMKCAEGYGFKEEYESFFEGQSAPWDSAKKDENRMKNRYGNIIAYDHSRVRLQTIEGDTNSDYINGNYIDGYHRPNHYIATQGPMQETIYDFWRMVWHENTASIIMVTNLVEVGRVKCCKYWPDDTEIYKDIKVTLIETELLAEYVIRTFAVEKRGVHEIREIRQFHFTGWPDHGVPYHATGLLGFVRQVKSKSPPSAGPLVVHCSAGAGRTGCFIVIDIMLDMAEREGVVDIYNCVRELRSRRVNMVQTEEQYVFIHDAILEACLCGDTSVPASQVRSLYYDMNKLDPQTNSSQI

Compound	pIC50 [1, 4]	pIC50 [2, 5]	pIC50 [3, 6]	pIC50 ([1]; comparison of R groups, read-out: IC50 1B)	pIC50 ([2]; comparison of R groups, read-out: IC50 Sigma)	pIC50 ([3]; comparison of R groups, read-out: IC50 Mu)
1-(4-Aminophenoxy)-4-trifluoromethylsulfonamidophenoxy benzene [Example 72]	4.55	4.39	< 4.00	–	–	–
O=[N+]([O-])c1cc(S(=O)(=O)C(F)(F)F)ccc1OC1CCC(Oc2ccc(S(=O)(=O)C(F)(F)F)cc2[N+](=O)[O-])C1 (mixture of isomers) [Example 12, 1,3-Bis-(2-nitro-4-trifluoromethanesulfonyl-phenoxy)-cyclopentane]	< 4.00	4.04	< 4.00	–	–	–
CS(=O)(=O)Nc1ccc(Oc2ccc(Oc3ccc(NS(C)(=O)=O)cc3)cc2)cc1 [CH3SO2NH—]	–	–	–	4.28	4.66	< 4.00
O=S(=O)(c1ccc(COCc2ccc(S(=O)(=O)C(F)(F)F)cc2)cc1)C(F)(F)F [Example 1, Bis (4-trifluoromethylsulfonylbenzyl) ether]	< 4.00	< 4.00	< 4.00	–	–	–
O=S(=O)(c1ccc(COc2ccc(S(=O)(=O)C(F)(F)F)cc2)cc1)C(F)(F)F [Example 2, 4-Trifluoromethylsulfonylbenzyl 4-trifluoromethylsulfonylphenyl ether]	4.25	4.52	< 4.00	–	–	–
O=C(c1ccccc1)N(Cc1ccc(S(=O)(=O)C(F)(F)F)cc1)Cc1ccc(S(=O)(=O)C(F)(F)F)cc1 [Example 3, N,N-Bis(4-trifluoromethylsulfonylbenzyl)benzamide]	4.35	4.37	< 4.00	–	–	–
O=S(=O)(c1ccc(CCc2ccc(S(=O)(=O)C(F)(F)F)cc2)cc1)C(F)(F)F [Example 4, 1,2-Bis(4-trifluoromethylsulfonylphenyl)ethane]	< 4.00	4.09	< 4.00	–	–	–
O=C(NCc1ccc(S(=O)(=O)C(F)(F)F)cc1)c1ccc(S(=O)(=O)C(F)(F)F)cc1 [Example 5, N-(4-Trifluoromethylsulfonylbenzyl)-4-trifluoromethylsulfonylbenzamide]	< 4.00	< 4.00	< 4.00	–	–	–
O=C(NCc1ccc(S(=O)(=O)C(F)(F)F)cc1)c1ccccc1 [Example 6, N-(4-Trifluoromethylsulfonylbenzyl)benzamide]	< 4.00	< 4.00	< 4.00	–	–	–
O=[N+]([O-])c1cc(S(=O)(=O)C(F)(F)F)ccc1SSc1ccc(S(=O)(=O)C(F)(F)F)cc1[N+](=O)[O-] [Example 8, Bis-(2-nitro-4-trifluoromethylsulfonylphenyl) disulfide]	4.33	4.56	< 4.00	–	–	–
COC(=O)c1cc(Oc2ccc(S(=O)(=O)C(F)(F)F)cc2)cc(Oc2ccc(S(=O)(=O)C(F)(F)F)cc2)c1 [Example 9, 3,5-Bis-(4-trifluoromethanesulfonyl-phenoxy)-benzoic acid methyl ester]	< 4.00	4.30	< 4.00	–	–	–
COC(=O)Cc1cc(Oc2ccc(S(=O)(=O)C(F)(F)F)cc2[N+](=O)[O-])cc(Oc2ccc(S(=O)(=O)C(F)(F)F)cc2[N+](=O)[O-])c1 [Example 10, [3,5-Bis-(2-nitro-4-trifluoromethanesulfonyl-phenoxy)-phenyl]-acetic acid methyl ester]	< 4.00	4.47	< 4.00	–	–	–
COC(=O)c1cc(Oc2ccc(S(=O)(=O)C(F)(F)F)cc2[N+](=O)[O-])cc(Oc2ccc(S(=O)(=O)C(F)(F)F)cc2[N+](=O)[O-])c1 [Example 11, 3,5-Bis-(2-nitro-4-trifluoromethanesulfonyl-phenoxy)-benzoic acid methyl ester]	< 4.00	4.62	< 4.00	–	–	–
COC(=O)c1c(Oc2ccc(S(=O)(=O)C(F)(F)F)cc2[N+](=O)[O-])cc(C)cc1Oc1ccc(S(=O)(=O)C(F)(F)F)cc1[N+](=O)[O-] [Example 13, 4-Methyl-2,6-bis-(2-nitro-4-trifluoromethanesulfonyl-phenoxy)-benzoic acid methyl ester]	< 4.00	4.07	4.12	–	–	–
COC(=O)c1ccc(OCCOc2ccc(S(=O)(=O)C(F)(F)F)cc2[N+](=O)[O-])cc1 [Example 14, 4-[2-(2-nitro-4-trifluoromethanesulfonyl-phenoxy)-ethoxy]-benzoic acid methyl ester]	< 4.00	5.17	< 4.00	–	–	–
O=C(O)c1ccc(Oc2cccc(Oc3ccc(S(=O)(=O)C(F)(F)F)cc3[N+](=O)[O-])c2)cc1 [Example 15, 4-[3-(2-Nitro-4-trifluoromethanesulfonyl-phenoxy)-phenoxy]-benzoic acid]	4.80	4.93	4.81	–	–	–
COC(=O)c1cc(Oc2ccc(S(=O)(=O)C(F)(F)F)cc2[N+](=O)[O-])n(-c2cc(C(F)(F)F)cc(C(F)(F)F)c2)n1 [Example 16, 1-(3,5-Bis-trifluoromethyl-phenyl)-5-(2-nitro-4-trifluoromethanesulfonyl-phenoxy)-1H-pyrazole-3-carboxylic acid methyl ester]	< 4.00	4.53	< 4.00	–	–	–
CCOC(=O)COc1ccc(S(=O)(=O)c2ccc(Oc3ccc(S(=O)(=O)C(F)(F)F)cc3[N+](=O)[O-])cc2)cc1 [Example 17, {4-[4-(2-Nitro-4-trifluoromethanesulfonyl-phenoxy)-benzenesulfonyl]-phenoxy}-acetic acid ethyl ester]	< 4.00	< 4.00	< 4.00	–	–	–
O=C(O)c1ccc(Oc2cccc(Oc3ccc(S(=O)(=O)C(F)(F)F)cc3)c2)cc1 [Example 18, 4-[3-(4-Trifluoromethanesulfonyl-phenoxy)-phenoxy]-benzoic acid]	4.79	4.66	4.67	–	–	–
CCOC(=O)COc1ccc(S(=O)(=O)c2ccc(Oc3ccc(S(=O)(=O)C(F)(F)F)cc3)cc2)cc1 [Example 19, {4-[4-(4-trifluoromethanesulfonyl-phenoxy)-benzenesulfonyl]-phenoxy}-acetic acid ethyl ester]	4.37	4.03	4.16	–	–	–
